Source: US8969325B2, “TRPV1 antagonists” (AbbVie Inc., priority 2011, dated 2015)

Legend:
human TRPV1 [1] = target: T1, human TRPV1 (Homo sapiens (Human), UniProt Q8NER1); test: Capsaicin Activation Assay (intracellular Ca2+, FLIPR); assay type: cell-based; conditions: recombinant HEK293 cells expressing hTRPV1, 50 nM capsaicin
Method in brief: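 Stably transfected HEK293 cells expressing human TRPV1 cDNA, plated the day before in poly-D-lysine plates. Compounds serially diluted from 10 mM DMSO stocks; intracellular Ca2+ fluorescence read on FLIPR at 1 to 5 second intervals.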

human TRPV1 [2] = target: T1, human TRPV1; test: Acid Activation Assay (pH 5.0, intracellular Ca2+, FLIPR); assay type: cell-based; conditions: percentage of the maximal pH 5.0-induced response remaining; recombinant HEK293 hTRPV1 cells; maximum concentration tested 37.5 μM
Method in brief: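 HEK293 cells stably expressing recombinant hTRPV1, loaded with Calcium-4 dye 90-120 min at 25° C. Compounds added over a 12-point half-log range (top 37.5 μM), then pH 5.0 DPBS/MES challenge after 3 min; FLIPR peak fluorescence over baseline given as % of maximal pH 5.0 response.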

T1 sequence (Q8NER1 whole entry): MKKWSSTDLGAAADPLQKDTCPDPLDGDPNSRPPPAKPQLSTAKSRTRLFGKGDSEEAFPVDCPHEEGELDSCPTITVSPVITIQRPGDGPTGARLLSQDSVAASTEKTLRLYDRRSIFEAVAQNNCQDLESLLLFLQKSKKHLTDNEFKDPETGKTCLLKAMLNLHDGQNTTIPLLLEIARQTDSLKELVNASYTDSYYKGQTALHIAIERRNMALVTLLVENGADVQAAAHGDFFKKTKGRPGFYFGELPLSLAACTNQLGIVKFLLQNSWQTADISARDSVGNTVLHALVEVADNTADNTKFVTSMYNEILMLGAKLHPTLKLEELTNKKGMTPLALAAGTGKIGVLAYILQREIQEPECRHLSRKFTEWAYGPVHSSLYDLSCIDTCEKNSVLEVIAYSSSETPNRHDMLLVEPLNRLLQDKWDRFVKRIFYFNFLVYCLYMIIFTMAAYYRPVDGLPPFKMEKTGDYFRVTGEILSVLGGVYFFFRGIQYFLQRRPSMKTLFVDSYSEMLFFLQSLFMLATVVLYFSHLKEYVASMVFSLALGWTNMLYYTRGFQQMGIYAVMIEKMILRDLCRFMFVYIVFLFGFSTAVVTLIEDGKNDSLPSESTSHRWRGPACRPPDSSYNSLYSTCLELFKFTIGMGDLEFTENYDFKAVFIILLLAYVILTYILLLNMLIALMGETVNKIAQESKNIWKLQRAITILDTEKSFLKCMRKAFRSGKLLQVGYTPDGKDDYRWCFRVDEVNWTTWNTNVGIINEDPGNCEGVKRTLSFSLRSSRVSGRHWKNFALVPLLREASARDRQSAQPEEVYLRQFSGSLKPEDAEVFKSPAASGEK

Row | IC50 (human TRPV1 [1]) [nM] | human TRPV1 H^+ (max % remain) (human TRPV1 [2]) [%] | SMILES
1 | 3 | 18 | CN1C(=O)NCc2c(NC(=O)N[C@@H]3C[C@@](C)(C(F)(F)F)Oc4ccccc43)cccc21 [Example 165, 1-(1-methyl-2-oxo-1,2,3,4-tetrahydroquinazolin-5-yl)-3-[(2S,4R)-2-methyl-2-(trifluoromethyl)-3,4-dihydro-2H-chromen-4-yl]urea]
2 | 1 | 10 | CN1C(=O)NCc2c(NC(=O)N[C@@H]3C[C@](C)(C(F)(F)F)Oc4ccccc43)cccc21 [Example 166, 1-(1-methyl-2-oxo-1,2,3,4-tetrahydroquinazolin-5-yl)-3-[(2R,4R)-2-methyl-2-(trifluoromethyl)-3,4-dihydro-2H-chromen-4-yl]urea]
3 | 5 | 5 | CN1Cc2c(NC(=O)N[C@@H]3CC(CF)(CF)Oc4cc(Cl)ccc43)cccc2N(C)C1=O [Example 167, 1-[(4R)-7-chloro-2,2-bis(fluoromethyl)-3,4-dihydro-2H-chromen-4-yl]-3-(1,3-dimethyl-2-oxo-1,2,3,4-tetrahydroquinazolin-5-yl)urea]
4 | 1200 | 28 | CN1C(=O)NCc2c(NC(=O)N[C@@H]3CCOc4ccccc43)cccc21 [Example 168, 1-[(4R)-3,4-dihydro-2H-chromen-4-yl]-3-(1-methyl-2-oxo-1,2,3,4-tetrahydroquinazolin-5-yl)urea]
5 | > 38000 | 96 | CN1C(=O)NCc2c(NC(=O)N[C@H]3CCOc4cc(OC(F)(F)F)ccc43)cccc21 [Example 169, 1-(1-methyl-2-oxo-1,2,3,4-tetrahydroquinazolin-5-yl)-3-[(4S)-7-(trifluoromethoxy)-3,4-dihydro-2H-chromen-4-yl]urea]
6 | 130 | 16 | CN1Cc2ccc(NC(=O)N[C@@H]3CC(CF)(CF)Oc4cc(Cl)ccc43)cc2NC1=O [Example 170, 1-[(4R)-7-chloro-2,2-bis(fluoromethyl)-3,4-dihydro-2H-chromen-4-yl]-3-(3-methyl-2-oxo-1,2,3,4-tetrahydroquinazolin-7-yl)urea]
7 | 1300 | 63 | CN1Cc2ccc(NC(=O)N[C@@H]3C[C@@](C)(C(F)F)Oc4ccccc43)cc2NC1=O [Example 171, 1-[(2S,4R)-2-(difluoromethyl)-2-methyl-3,4-dihydro-2H-chromen-4-yl]-3-(3-methyl-2-oxo-1,2,3,4-tetrahydroquinazolin-7-yl)urea]
8 | 210 | 51 | CN1Cc2ccc(NC(=O)N[C@@H]3CC(C)(C)Oc4c3ccc(F)c4Cl)cc2NC1=O [Example 172, 1-[(4R)-8-chloro-7-fluoro-2,2-dimethyl-3,4-dihydro-2H-chromen-4-yl]-3-(3-methyl-2-oxo-1,2,3,4-tetrahydroquinazolin-7-yl)urea]
9 | 100 | 54 | CN1Cc2ccc(NC(=O)N[C@@H]3CC(CF)(CF)Oc4cc(C(F)(F)F)ccc43)cc2NC1=O [Example 173, 1-[(4R)-2,2-bis(fluoromethyl)-7-(trifluoromethyl)-3,4-dihydro-2H-chromen-4-yl]-3-(3-methyl-2-oxo-1,2,3,4-tetrahydroquinazolin-7-yl)urea]
10 | 130 | 52 | CN1Cc2ccc(NC(=O)N[C@@H]3CCc4cc(C(F)(F)F)ccc43)cc2NC1=O [Example 174, 1-(3-methyl-2-oxo-1,2,3,4-tetrahydroquinazolin-7-yl)-3-[(1R)-5-(trifluoromethyl)-2,3-dihydro-1H-inden-1-yl]urea]
11 | 4100 | 62 | CN1Cc2ccc(NC(=O)N[C@@H]3CCOc4ccccc43)cc2NC1=O [Example 175, 1-[(4R)-3,4-dihydro-2H-chromen-4-yl]-3-(3-methyl-2-oxo-1,2,3,4-tetrahydroquinazolin-7-yl)urea]
12 | 120 | 50 | CN1Cc2ccc(NC(=O)N[C@@H]3CC(C)(C)Oc4cc(F)ccc43)cc2NC1=O [Example 176, 1-[(4R)-7-fluoro-2,2-dimethyl-3,4-dihydro-2H-chromen-4-yl]-3-(3-methyl-2-oxo-1,2,3,4-tetrahydroquinazolin-7-yl)urea]
13 | 91 | 59 | CCC1(CC)C[C@@H](NC(=O)Nc2ccc3c(c2)NC(=O)N(C)C3)c2cccc(F)c2O1 [Example 177, 1-[(4R)-2,2-diethyl-8-fluoro-3,4-dihydro-2H-chromen-4-yl]-3-(3-methyl-2-oxo-1,2,3,4-tetrahydroquinazolin-7-yl)urea]
14 | 72 | 52 | CCC1(CC)C[C@@H](NC(=O)Nc2ccc3c(c2)NC(=O)N(C)C3)c2ccccc2O1 [Example 178, 1-[(4R)-2,2-diethyl-3,4-dihydro-2H-chromen-4-yl]-3-(3-methyl-2-oxo-1,2,3,4-tetrahydroquinazolin-7-yl)urea]
15 | 190 | 37 | CN1Cc2ccc(NC(=O)N[C@@H]3CCc4cc(C(C)(C)C)ccc43)cc2NC1=O [Example 179, 1-[(1R)-5-tert-butyl-2,3-dihydro-1H-inden-1-yl]-3-(3-methyl-2-oxo-1,2,3,4-tetrahydroquinazolin-7-yl)urea]
16 | 230 | 12 | CCC1(CC)C[C@@H](NC(=O)Nc2ccc3c(c2)NC(=O)N(C)C3)c2ccc(C(F)(F)F)cc2O1 [Example 180, 1-[(4R)-2,2-diethyl-7-(trifluoromethyl)-3,4-dihydro-2H-chromen-4-yl]-3-(3-methyl-2-oxo-1,2,3,4-tetrahydroquinazolin-7-yl)urea]
17 | 210 | 28 | CCC1(CC)C[C@@H](NC(=O)Nc2ccc3c(c2)NC(=O)N(C)C3)c2ccc(Cl)cc2O1 [Example 181, 1-[(4R)-7-chloro-2,2-diethyl-3,4-dihydro-2H-chromen-4-yl]-3-(3-methyl-2-oxo-1,2,3,4-tetrahydroquinazolin-7-yl)urea]
18 | 380 | 29 | CCC1(CC)C[C@@H](NC(=O)Nc2ccc3c(c2)NC(=O)N(C)C3)c2ccc(Cl)c(Cl)c2O1 [Example 182, 1-[(4R)-7,8-dichloro-2,2-diethyl-3,4-dihydro-2H-chromen-4-yl]-3-(3-methyl-2-oxo-1,2,3,4-tetrahydroquinazolin-7-yl)urea]
19 | 120 | 42 | CN1Cc2ccc(NC(=O)N[C@@H]3CC(CF)(CF)Oc4cc(OC(F)(F)F)ccc43)cc2NC1=O [Example 183, 1-[(4R)-2,2-bis(fluoromethyl)-7-(trifluoromethoxy)-3,4-dihydro-2H-chromen-4-yl]-3-(3-methyl-2-oxo-1,2,3,4-tetrahydroquinazolin-7-yl)urea]
20 | 86 | 44 | CN1Cc2ccc(NC(=O)N[C@@H]3CC(C)(C)Oc4cc(C(F)(F)F)ccc43)cc2NC1=O [Example 184, 1-[(4R)-2,2-dimethyl-7-(trifluoromethyl)-3,4-dihydro-2H-chromen-4-yl]-3-(3-methyl-2-oxo-1,2,3,4-tetrahydroquinazolin-7-yl)urea]
21 | 210 | 61 | CCCC1(CCC)C[C@@H](NC(=O)Nc2ccc3c(c2)NC(=O)N(C)C3)c2cc(F)ccc2O1 [Example 185, 1-[(4R)-6-fluoro-2,2-dipropyl-3,4-dihydro-2H-chromen-4-yl]-3-(3-methyl-2-oxo-1,2,3,4-tetrahydroquinazolin-7-yl)urea]
22 | 1500 | 58 | CN1Cc2ccc(NC(=O)N[C@@H]3CC(CF)(CF)Oc4ccc(F)cc43)cc2NC1=O [Example 186, 1-[(4R)-6-fluoro-2,2-bis(fluoromethyl)-3,4-dihydro-2H-chromen-4-yl]-3-(3-methyl-2-oxo-1,2,3,4-tetrahydroquinazolin-7-yl)urea]
23 | 760 | 50 | CN1Cc2ccc(NC(=O)N[C@@H]3CC(CF)(CF)Oc4c(F)cc(F)cc43)cc2NC1=O [Example 187, 1-[(4R)-6,8-difluoro-2,2-bis(fluoromethyl)-3,4-dihydro-2H-chromen-4-yl]-3-(3-methyl-2-oxo-1,2,3,4-tetrahydroquinazolin-7-yl)urea]
24 | 290 | 46 | CN1Cc2ccc(NC(=O)N[C@@H]3CC4(CCC4)Oc4ccc(F)cc43)cc2NC1=O [Example 188, 1-[(4R)-6-fluoro-3,4-dihydrospiro[chromene-2,1′-cyclobutan]-4-yl]-3-(3-methyl-2-oxo-1,2,3,4-tetrahydroquinazolin-7-yl)urea]
25 | 200 | 40 | CCC1(CC)C[C@@H](NC(=O)Nc2ccc3c(c2)NC(=O)N(C)C3)c2cc(F)ccc2O1 [Example 189, 1-[(4R)-2,2-diethyl-6-fluoro-3,4-dihydro-2H-chromen-4-yl]-3-(3-methyl-2-oxo-1,2,3,4-tetrahydroquinazolin-7-yl)urea]
26 | 450 | 79 | CCCC1(CCC)C[C@@H](NC(=O)Nc2ccc3c(c2)NC(=O)N(C)C3)c2cccc(F)c2O1 [Example 190, 1-[(4R)-8-fluoro-2,2-dipropyl-3,4-dihydro-2H-chromen-4-yl]-3-(3-methyl-2-oxo-1,2,3,4-tetrahydroquinazolin-7-yl)urea]
27 | 450 | 19 | CCC1(CC)C[C@@H](NC(=O)Nc2ccc3c(c2)NC(=O)N(C)C3)c2ccc(OC(F)(F)F)cc2O1 [Example 191, 1-[(4R)-2,2-diethyl-7-(trifluoromethoxy)-3,4-dihydro-2H-chromen-4-yl]-3-(3-methyl-2-oxo-1,2,3,4-tetrahydroquinazolin-7-yl)urea]
